Reference: the NIST ThermoML archive (doi:10.1016/j.jct.2004.07.025)
Several values for one entry are separate records, joined by “and”; a condition that tells them apart may be missing. Equal values may be shown once.

Conditions: Liquid

CCOC(=O)c1ccccc1C(=O)OCC [diethyl phthalate]
Conditions	vapor or sublimation pressure
303.19 K, Calculated from knudsen effusion weight loss	0.000165 kPa
307.62 K, Calculated from knudsen effusion weight loss	0.00026 kPa
308.1 K, Calculated from knudsen effusion weight loss	0.000271 kPa
313.34 K, Calculated from knudsen effusion weight loss	0.000456 kPa
318.54 K, Calculated from knudsen effusion weight loss	0.000769 kPa
323.04 K, Calculated from knudsen effusion weight loss	0.00116 kPa
323.33 K, Calculated from knudsen effusion weight loss	0.001179 kPa
328.33 K, Calculated from knudsen effusion weight loss	0.001842 kPa
333.55 K, Calculated from knudsen effusion weight loss	0.002839 kPa
333.58 K, Calculated from knudsen effusion weight loss	0.002895 kPa
333.68 K, Calculated from knudsen effusion weight loss	0.00286 kPa
335.05 K, Closed cell (Static) method	0.0037 kPa
335.07 K, Closed cell (Static) method	0.0037 kPa
337.65 K, Calculated from knudsen effusion weight loss	0.003873 kPa
338.68 K, Calculated from knudsen effusion weight loss	0.004379 kPa
343.7 K, Calculated from knudsen effusion weight loss	0.006569 kPa
344.41 K, Closed cell (Static) method	0.0076 kPa
344.43 K, Closed cell (Static) method	0.0077 kPa
354.01 K, Closed cell (Static) method	0.0158 kPa
354.03 K, Closed cell (Static) method	0.0159 kPa
363.15 K, Closed cell (Static) method	0.0304 kPa
363.16 K, Closed cell (Static) method	0.0305 kPa
365.75 K, Closed cell (Static) method	0.036 kPa and 0.0359 kPa
365.77 K, Closed cell (Static) method	0.0363 kPa
375.29 K, Closed cell (Static) method	0.0671 kPa
375.31 K, Closed cell (Static) method	0.0671 kPa
384.96 K, Closed cell (Static) method	0.121 kPa
394.42 K, Closed cell (Static) method	0.21 kPa and 0.209 kPa and 0.207 kPa
394.43 K, Closed cell (Static) method	0.208 kPa
394.47 K, Closed cell (Static) method	0.207 kPa
403.73 K, Closed cell (Static) method	0.346 kPa
403.77 K, Closed cell (Static) method	0.347 kPa
404.25 K, Closed cell (Static) method	0.352 kPa
404.27 K, Closed cell (Static) method	0.352 kPa
413.4 K, Closed cell (Static) method	0.568 kPa
413.43 K, Closed cell (Static) method	0.569 kPa
414.26 K, Closed cell (Static) method	0.585 kPa
414.27 K, Closed cell (Static) method	0.586 kPa
424.06 K, Closed cell (Static) method	0.94 kPa
424.09 K, Closed cell (Static) method	0.94 kPa
479.25 K, Ebulliometric method (Recirculating still)	8.318 kPa
487.77 K, Ebulliometric method (Recirculating still)	11.06 kPa
494.93 K, Ebulliometric method (Recirculating still)	13.9 kPa
501 K, Ebulliometric method (Recirculating still)	16.77 kPa
507.32 K, Ebulliometric method (Recirculating still)	20.26 kPa
513.93 K, Ebulliometric method (Recirculating still)	24.53 kPa
520.32 K, Ebulliometric method (Recirculating still)	29.35 kPa
